From patent publication US8691865B2 (AbbVie Inc., priority 2008, dated 2014)
Where two headings read alike, the source gives them in different places.

Assays:
Sprague Dawley rats = assay: Analgesic effect against neuropathic pain, Bennett model (chronic constriction injury); type: in vivo; conditions: Rattus norvegicus, 1 h; 30 mg/kg po; mechanical allodynia 60 minutes after administration; CCI rats; read-out: % MPE
Method: (iii) In Vivo Data—Determination of Analgesic Effect Against Neuropathic Pain—Bennett Model
Animals were prepared for testing, by use of a surgical procedure that induces neuropathic pain in one paw. IACUC guidelines for rodent survival surgery are followed. All surgical procedures are conducted on a clean, uncluttered surgical station. The area is wiped with a 70% ethanol solution before and after use. All instruments are sterilized by either autoclave or chemical sterilant (such as 2% glutaraldehyde >10 hr). Surgeons wear sterile gloves (for the initial procedure), clean lab coat or scrubs, hairnet or cap, and a half-mask respirator (when not working under a hood). Surgeons thoroughly wash their hands prior to donning sterile gloves. Gloves are disinfected in-between animals by cleansing with povidone iodine, chlorhexidine or 70% alcohol for at least 30 seconds. If multiple surgeries are performed, the instruments are cleaned and sterilized between procedures with hot glass beads (>10 seconds). To prevent thermal or chemical burns, the instruments are cooled by rinsing in sterile saline before use.
To minimize post-operative dehydration/maintain blood volume during the surgery, warmed sterile saline or Lactate Ringers solution at 10-15 mL/kg is administered subcutaneously immediately before or after surgery. This facilitates better renal function and presumably anesthesia product excretion post surgery. For all surgical procedures, anesthesia is induced with 4-5% isoflurane. Anesthesia is be maintained during surgery with 1-3% isoflurane. Following induction, the surgical site is carefully shaved and the exposed area is aseptically prepared with povidone-iodine scrub solution and 70% ethanol 2-3 times.
After site sterilization and anesthetic procedures outline above are completed, a 1.5 cm incision is made at the mid-thigh level to expose the biceps femoris and gluteous superficialis (right side), which are then separated by blunt dissection. The common sciatic nerve is exposed, isolated, and loosely ligated by four 5-0 chromic gut ligatures with <1 mm spacing between each. The surgical site is closed in layers—muscle is closed with 6.0 absorbable sutures, and the skin closed with wound clips. Animals are allowed to recover on a warming plate and are returned to their home cages when fully ambulatory. Animals are not be used for testing until at least 10 days following surgery.
Filament strengths used are: 0.4, 0.6, 1.0, 2, 4, 6, 8, and 15 g. […] Filaments are applied perpendicular to the mid-plantar paw surface with enough force to cause slight buckling and held in place for 6-8 seconds. Positive responses include an abrupt withdrawal of the paw from the stimulus or flinching behavior immediately following removal of the stimulus. The maximum force applied will be 15 g. […] All compounds were orally administered in 10% dimethyl sulfoxide/polyethylene glycol at a volume of 2.0 mL/kg, and mechanical allodynia was determined 60 minutes following compound administration. Data are reported as log g values and the percentage of maximum possible effect (% MPE) is calculated using log g values with the formula: % MPE=(log [observed PWT in grams]−log [mean PWT vehicle])/(log [15]−log [mean PWT vehicle])*100 All statistical procedures are run on log g values.

human Cav2.2 = human Cav2.2 (Homo sapiens, UniProt Q00975); assay: Assessment of calcium channel activity using FLIPR (Ca2+ influx in IMR32 cells); type: cell-based
human Cav2.2, sequence (Q00975 whole entry): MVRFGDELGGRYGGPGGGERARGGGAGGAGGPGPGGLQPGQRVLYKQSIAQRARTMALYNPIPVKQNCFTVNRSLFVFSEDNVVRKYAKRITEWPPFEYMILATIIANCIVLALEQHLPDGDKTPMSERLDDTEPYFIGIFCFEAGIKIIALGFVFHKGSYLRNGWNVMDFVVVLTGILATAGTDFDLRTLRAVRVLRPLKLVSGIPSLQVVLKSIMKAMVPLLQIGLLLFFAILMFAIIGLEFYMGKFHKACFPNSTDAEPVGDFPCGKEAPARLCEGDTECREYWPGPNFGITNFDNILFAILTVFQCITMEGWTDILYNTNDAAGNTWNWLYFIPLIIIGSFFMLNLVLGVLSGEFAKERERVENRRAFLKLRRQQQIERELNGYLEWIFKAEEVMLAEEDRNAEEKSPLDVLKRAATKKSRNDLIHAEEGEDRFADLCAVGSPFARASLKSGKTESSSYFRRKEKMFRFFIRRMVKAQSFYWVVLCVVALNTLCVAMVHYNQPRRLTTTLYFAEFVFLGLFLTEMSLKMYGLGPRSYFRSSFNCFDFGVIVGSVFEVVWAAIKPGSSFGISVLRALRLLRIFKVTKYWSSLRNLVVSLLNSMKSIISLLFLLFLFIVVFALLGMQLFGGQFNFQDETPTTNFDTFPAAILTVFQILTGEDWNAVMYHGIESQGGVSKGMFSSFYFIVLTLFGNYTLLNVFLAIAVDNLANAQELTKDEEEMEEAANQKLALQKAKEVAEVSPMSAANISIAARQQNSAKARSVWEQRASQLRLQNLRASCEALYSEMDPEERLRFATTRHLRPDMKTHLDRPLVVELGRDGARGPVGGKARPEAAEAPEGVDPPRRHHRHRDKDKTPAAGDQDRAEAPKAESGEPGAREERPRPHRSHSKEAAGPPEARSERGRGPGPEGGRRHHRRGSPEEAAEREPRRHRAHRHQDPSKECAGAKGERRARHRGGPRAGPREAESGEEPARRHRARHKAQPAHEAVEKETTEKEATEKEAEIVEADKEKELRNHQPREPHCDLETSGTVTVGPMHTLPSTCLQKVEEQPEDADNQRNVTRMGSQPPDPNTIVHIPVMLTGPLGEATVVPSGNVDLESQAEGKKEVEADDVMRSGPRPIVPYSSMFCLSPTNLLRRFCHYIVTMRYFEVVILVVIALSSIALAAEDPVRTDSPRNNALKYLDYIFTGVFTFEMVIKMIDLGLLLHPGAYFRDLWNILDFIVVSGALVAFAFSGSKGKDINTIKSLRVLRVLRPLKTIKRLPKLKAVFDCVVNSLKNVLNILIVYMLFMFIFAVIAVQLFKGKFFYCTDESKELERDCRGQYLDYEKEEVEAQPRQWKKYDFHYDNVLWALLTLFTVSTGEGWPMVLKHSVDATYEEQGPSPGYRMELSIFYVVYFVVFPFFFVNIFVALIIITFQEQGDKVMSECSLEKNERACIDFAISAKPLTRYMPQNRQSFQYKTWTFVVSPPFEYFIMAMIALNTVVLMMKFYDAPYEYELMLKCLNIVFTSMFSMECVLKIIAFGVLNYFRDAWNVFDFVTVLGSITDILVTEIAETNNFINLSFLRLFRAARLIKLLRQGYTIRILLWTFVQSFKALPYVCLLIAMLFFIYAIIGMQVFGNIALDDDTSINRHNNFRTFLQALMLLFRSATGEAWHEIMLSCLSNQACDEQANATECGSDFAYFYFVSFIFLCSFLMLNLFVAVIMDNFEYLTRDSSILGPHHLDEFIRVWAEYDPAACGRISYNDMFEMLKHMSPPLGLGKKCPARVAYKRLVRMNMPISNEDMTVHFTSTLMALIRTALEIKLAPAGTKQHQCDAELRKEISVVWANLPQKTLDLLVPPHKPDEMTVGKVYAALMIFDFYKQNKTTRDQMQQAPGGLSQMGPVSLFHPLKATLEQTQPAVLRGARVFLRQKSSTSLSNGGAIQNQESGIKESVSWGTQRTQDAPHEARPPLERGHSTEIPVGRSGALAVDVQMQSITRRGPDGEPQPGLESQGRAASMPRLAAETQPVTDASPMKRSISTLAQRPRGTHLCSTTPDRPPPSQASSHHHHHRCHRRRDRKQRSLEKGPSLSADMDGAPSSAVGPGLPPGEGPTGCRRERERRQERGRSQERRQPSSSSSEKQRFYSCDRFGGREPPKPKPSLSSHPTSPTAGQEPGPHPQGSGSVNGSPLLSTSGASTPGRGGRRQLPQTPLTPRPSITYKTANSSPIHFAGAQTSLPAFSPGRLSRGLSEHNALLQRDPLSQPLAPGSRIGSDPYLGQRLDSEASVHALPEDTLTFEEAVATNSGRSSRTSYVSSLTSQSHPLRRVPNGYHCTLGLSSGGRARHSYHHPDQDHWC
human Cav2.2, sequence (P54289 25-956 partner limits assumed): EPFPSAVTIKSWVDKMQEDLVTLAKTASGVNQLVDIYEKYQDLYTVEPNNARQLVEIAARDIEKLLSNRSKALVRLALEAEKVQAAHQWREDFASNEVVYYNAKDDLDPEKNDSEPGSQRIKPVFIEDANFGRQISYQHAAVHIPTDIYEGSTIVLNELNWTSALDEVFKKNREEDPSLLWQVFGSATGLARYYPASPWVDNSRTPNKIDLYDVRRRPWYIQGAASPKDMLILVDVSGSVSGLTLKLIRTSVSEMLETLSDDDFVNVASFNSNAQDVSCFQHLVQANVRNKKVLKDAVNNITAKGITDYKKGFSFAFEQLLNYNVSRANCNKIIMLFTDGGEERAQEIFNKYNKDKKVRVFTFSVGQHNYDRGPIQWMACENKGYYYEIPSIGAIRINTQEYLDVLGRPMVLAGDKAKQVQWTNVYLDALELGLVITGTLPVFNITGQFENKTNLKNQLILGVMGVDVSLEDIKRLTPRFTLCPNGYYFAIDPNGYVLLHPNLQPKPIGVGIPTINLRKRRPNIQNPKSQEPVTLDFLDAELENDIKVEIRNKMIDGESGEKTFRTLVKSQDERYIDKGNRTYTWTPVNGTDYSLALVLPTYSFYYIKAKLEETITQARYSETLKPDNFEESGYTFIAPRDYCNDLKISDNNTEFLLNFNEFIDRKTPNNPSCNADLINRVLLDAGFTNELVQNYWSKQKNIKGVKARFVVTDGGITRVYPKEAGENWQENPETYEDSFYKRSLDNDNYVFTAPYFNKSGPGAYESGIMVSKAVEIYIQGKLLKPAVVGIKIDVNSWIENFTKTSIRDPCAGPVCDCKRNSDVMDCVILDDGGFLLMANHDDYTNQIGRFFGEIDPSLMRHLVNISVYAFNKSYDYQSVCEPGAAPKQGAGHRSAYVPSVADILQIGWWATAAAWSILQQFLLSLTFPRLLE
human Cav2.2, sequence (P54289 957-1103 partner limits assumed): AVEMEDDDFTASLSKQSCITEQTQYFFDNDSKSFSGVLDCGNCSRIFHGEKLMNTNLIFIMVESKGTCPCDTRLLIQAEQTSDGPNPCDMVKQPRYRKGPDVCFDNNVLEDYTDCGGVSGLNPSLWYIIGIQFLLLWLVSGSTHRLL
human Cav2.2, sequence (P54284 whole entry partner): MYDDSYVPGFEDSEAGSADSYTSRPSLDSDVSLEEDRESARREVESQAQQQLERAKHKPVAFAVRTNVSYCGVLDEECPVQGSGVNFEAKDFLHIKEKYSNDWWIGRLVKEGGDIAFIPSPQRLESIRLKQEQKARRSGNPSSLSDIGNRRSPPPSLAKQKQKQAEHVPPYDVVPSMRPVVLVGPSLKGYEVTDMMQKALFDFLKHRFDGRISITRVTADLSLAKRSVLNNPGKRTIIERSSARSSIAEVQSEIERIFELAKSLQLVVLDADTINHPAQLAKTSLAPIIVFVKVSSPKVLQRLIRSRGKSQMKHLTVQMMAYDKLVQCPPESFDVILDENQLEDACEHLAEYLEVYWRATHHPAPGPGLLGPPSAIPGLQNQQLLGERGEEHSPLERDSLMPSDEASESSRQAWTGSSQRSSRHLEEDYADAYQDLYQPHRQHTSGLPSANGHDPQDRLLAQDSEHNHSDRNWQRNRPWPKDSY
How it was run: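 IC50 values derive from nonlinear sigmoidal fitting of percent inhibition, relative to inhibitor-free activity, of Ca2+ influx read by FLIPR. Cells were IMR32 human neuroblastoma, plated at 1−1.2×10^5 per well and grown 48 h at 37 °C.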

[1] = read-out: IC50 (μM) or percent inhibition (* indicates 3 minute incubation, otherwise 60 minute), IC50, 60 minute pre-incubation with compound, IMR32 cells, 80 mM KCl depolarization

Row | Structure (SMILES) | inhibition in vivo at 30 mg/kg (Sprague Dawley rats) | IC50 (human Cav2.2) | IC50 (human Cav2.2; [1])
1 | O=C(N[C@H]1CC[C@@H]2CN(c3cccc(OC(F)(F)F)c3)C[C@@H]21)[C@@H]1C[C@@H](F)CN1 [Example 627, (4R)-4-fluoro-N-{(3aR,4S,6aS)-2-[3-(trifluoromethoxy)phenyl]octahydrocyclopenta[c]pyrrol-4-yl}-L-prolinamide] | 54% | 2.71 µM | –
2 | CN[C@@H](CC(C)C)C(=O)N[C@@H]1CC[C@H]2CN(c3ccc(OC(F)(F)F)cc3)C[C@H]21 [Example 739, N^2-methyl-N-{(3aS,4R,6aR)-2-[4-(trifluoromethoxy)phenyl]octahydrocyclopenta[c]pyrrol-4-yl}-L-leucinamide] | 63% | 2.85 µM | –
3 | CN[C@@H](CC(C)C)C(=O)N[C@H]1CC[C@@H]2CN(c3cccc(OC(F)(F)F)c3)C[C@@H]21 [Example 625, N^2-methyl-N-{(3aR,4S,6aS)-2-[3-(trifluoromethoxy)phenyl]octahydrocyclopenta[c]pyrrol-4-yl}-L-leucinamide] | 42% | 1.42 µM | –
4 | CN[C@@H](CC(C)C)C(=O)N[C@H]1CC[C@@H]2CN(c3nccc(C(F)(F)F)n3)C[C@@H]21 [Example 722, N^2-methyl-N-{(3aR,4S,6aS)-2-[4-(trifluoromethyl)pyrimidin-2-yl]octahydrocyclopenta[c]pyrrol-4-yl}-L-leucinamide] | 8% | 2.53 µM | –
5 | CN[C@@H](CC(C)C)C(=O)N[C@H]1CC[C@@H]2CN(c3ccc(OC(F)(F)F)cc3)C[C@@H]21 [Example 624, N^2-methyl-N-{(3aR,4S,6aS)-2-[4-(trifluoromethoxy)phenyl]octahydrocyclopenta[c]pyrrol-4-yl}-L-leucinamide] | 85% | 4.91 µM | –
6 | CCC[C@H](NC)C(=O)N[C@H]1CC[C@@H]2CN(c3cccc(OC(F)(F)F)c3)C[C@@H]21 [Example 718, N^2-methyl-N-{(3aR,4S,6aS)-2-[3-(trifluoromethoxy)phenyl]octahydrocyclopenta[c]pyrrol-4-yl}-L-norvalinamide] | 29% | 1.3 µM | –
7 | CN[C@@H](CC(C)C)C(=O)N[C@H]1CC[C@@H]2CN(c3ccc(C(F)(F)F)cc3)C[C@@H]21 [Example 608, N^2-methyl-N-{(3aR,4S,6aS)-2-[4-(trifluoromethyl)phenyl]octahydrocyclopenta[c]pyrrol-4-yl}-L-leucinamide] | 79% | 1.65 µM | –
8 | Fc1ccc2[nH]c(CN[C@H]3CC[C@@H]4CN(c5cccc(C(F)(F)F)n5)C[C@@H]43)cc2c1 [Example 613, (3aR,4S,6aS)-N-[(5-fluoro-1H-indol-2-yl)methyl]-2-[6-(trifluoromethyl)pyridin-2-yl]octahydrocyclopenta[c]pyrrol-4-amine] | 61% | 0.91 µM | –
9 | FC(F)(F)c1cccc(N2C[C@H]3CC[C@H](NCc4cc5ccncc5s4)[C@H]3C2)n1 [Example 721, (3aR,4S,6aS)-N-(thieno[2,3-c]pyridin-2-ylmethyl)-2-[6-(trifluoromethyl)pyridin-2-yl]octahydrocyclopenta[c]pyrrol-4-amine] | – | 0.87 µM | –
10 | CN[C@@H](CC(C)C)C(=O)N[C@H]1CC[C@@H]2CN(c3cncc(C(F)(F)F)c3)C[C@@H]21 [Example 736, N^2-methyl-N-{(3aR,4S,6aS)-2-[5-(trifluoromethyl)pyridin-3-yl]octahydrocyclopenta[c]pyrrol-4-yl}-L-leucinamide] | – | 3.34 µM | –
11 | CC(C)C(C(=O)N[C@H]1CC[C@@H]2CN(CCC(c3ccc(F)cc3)c3ccc(F)cc3)C[C@@H]21)c1ccccc1 (stereo partly drawn) [Example 117, N-{(3aR,4S,6aS)-2-[3,3-bis(4-fluorophenyl)propyl]octahydrocyclopenta[c]pyrrol-4-yl}-3-methyl-2-phenylbutanamide] | – | – | 0.88 µM
12 | CN[C@@H](CC(C)C)C(=O)N[C@H]1CC[C@@H]2CN(c3ccc(SC(F)(F)F)cc3)C[C@@H]21 [Example 707, N^2-methyl-N-[(3aR,4S,6aS)-2-{4-[(trifluoromethyl)thio]phenyl}octahydrocyclopenta[c]pyrrol-4-yl]-L-leucinamide] | – | 7.26 µM | –
13 | O=C(N[C@H]1CC[C@@H]2CN(c3cccc(C(F)(F)F)n3)C[C@@H]21)c1cc(C2CC2)n[nH]1 [Example 583, 3-cyclopropyl-N-{(3aR,4S,6aS)-2-[6-(trifluoromethyl)pyridin-2-yl]octahydrocyclopenta[c]pyrrol-4-yl}-1H-pyrazole-5-carboxamide] | – | 1.12 µM | –
14 | Cc1c(CN[C@H]2CC[C@@H]3CN(c4cccc(C(F)(F)F)n4)C[C@@H]32)[nH]c2ccccc12 [Example 664, (3aR,4S,6aS)-N-[(3-methyl-1H-indol-2-yl)methyl]-2-[6-(trifluoromethyl)pyridin-2-yl]octahydrocyclopenta[c]pyrrol-4-amine] | – | 1.69 µM | –
15 | CC(C)(C)C[C@H](N)C(=O)N[C@H]1CC[C@@H]2CN(C(=O)[C@@H](N)Cc3ccccc3)C[C@@H]21 [Example 465, 4-methyl-N^1-[(3aR,4S,6aS)-2-L-phenylalanyloctahydrocyclopenta[c]pyrrol-4-yl]-L-leucinamide] | – | > 30 µM | –
16 | CC(C)CC(C(=O)NC1CCC2CN(Cc3ccc(F)c(C(F)(F)F)c3)CC21)N(C)C(=O)OC(C)(C)C [Example 312, tert-butyl(S)-1-((3aS,4R,6aR)-2-(4-fluoro-3-(trifluoromethyl)benzyl)octahydrocyclopenta[c]pyrrol-4-ylamino)-4-methyl-1-oxopentan-2-ylmethyl)carbamate] | – | 1.59 µM | –
17 | CC(C)C[C@@H](C(=O)N[C@@H]1CC[C@H]2CN(Cc3ccccc3)C[C@H]21)N(C)C(=O)OC(C)(C)C [Example 151, N^1-[(3aS,4R,6aR)-2-benzyloctahydrocyclopenta[c]pyrrol-4-yl]-N^2-(tert-butyloxycarbonyl)-N^2-methyl-L-leucinamide] | – | – | 0.71 µM
18 | O=C(N[C@H]1CC[C@@H]2CN(c3ccc(C(F)(F)F)cn3)C[C@@H]21)[C@@H]1Cc2ccccc2N1 [Example 604, (2S)-N-{(3aR,4S,6aS)-2-[5-(trifluoromethyl)pyridin-2-yl]octahydrocyclopenta[c]pyrrol-4-yl}indoline-2-carboxamide] | – | 2.78 µM | –
19 | Cc1cccc(CN2C[C@H]3CC[C@H](NC(=O)C(c4ccccc4)C(C)C)[C@H]3C2)c1 (stereo partly drawn) [Example 91, 3-methyl-N-[(3aR,4S,6aS)-2-(3-methylbenzyl)octahydrocyclopenta[c]pyrrol-4-yl]-2-phenylbutanamide] | – | – | 1.78 µM
20 | CCC[C@H](NC)C(=O)N[C@H]1CC[C@H]2CN(Cc3ccccc3)C[C@H]21 [Example 359, N^1-[(3aS,4S,6aR)-2-benzyloctahydrocyclopenta[c]pyrrol-4-yl]-N^2-methyl-L-norvalinamide] | – | > 30 µM | –
21 | Cc1cccc(N2C[C@H]3CC[C@H](NC(=O)[C@@H]4C[C@@H](F)CN4)[C@H]3C2)c1 [Example 642, (4R)-4-fluoro-N-[(3aR,4S,6aS)-2-(3-methylphenyl)octahydrocyclopenta[c]pyrrol-4-yl]-L-prolinamide] | – | 15.6 µM | –
22 | CC(C)C[C@H](NC(=O)OC1CCCC1)C(=O)N[C@@H]1CC[C@H]2CN(Cc3cccc(C(F)(F)F)c3)C[C@H]21 [Example 179, cyclopentyl(S)-4-methyl-1-oxo-1-((3aS,4R,6aR)-2-(3-(trifluoromethyl)benzyl)octahydrocyclopenta[c]pyrrol-4-ylamino)pentan-2-ylcarbamate] | – | – | 0.89 µM
